Data reported in patent US11427548B2 (Arvinas Operations, Inc., priority 2015, dated 2022).
Like-named read-outs stand apart in the source and are kept apart here.

Biological target: T1, Androgen Receptor (Homo sapiens, UniProt P10275)
T1 construct: endogenous in cells; host or cells: VCaP cells
T1 sequence (P10275 1-920): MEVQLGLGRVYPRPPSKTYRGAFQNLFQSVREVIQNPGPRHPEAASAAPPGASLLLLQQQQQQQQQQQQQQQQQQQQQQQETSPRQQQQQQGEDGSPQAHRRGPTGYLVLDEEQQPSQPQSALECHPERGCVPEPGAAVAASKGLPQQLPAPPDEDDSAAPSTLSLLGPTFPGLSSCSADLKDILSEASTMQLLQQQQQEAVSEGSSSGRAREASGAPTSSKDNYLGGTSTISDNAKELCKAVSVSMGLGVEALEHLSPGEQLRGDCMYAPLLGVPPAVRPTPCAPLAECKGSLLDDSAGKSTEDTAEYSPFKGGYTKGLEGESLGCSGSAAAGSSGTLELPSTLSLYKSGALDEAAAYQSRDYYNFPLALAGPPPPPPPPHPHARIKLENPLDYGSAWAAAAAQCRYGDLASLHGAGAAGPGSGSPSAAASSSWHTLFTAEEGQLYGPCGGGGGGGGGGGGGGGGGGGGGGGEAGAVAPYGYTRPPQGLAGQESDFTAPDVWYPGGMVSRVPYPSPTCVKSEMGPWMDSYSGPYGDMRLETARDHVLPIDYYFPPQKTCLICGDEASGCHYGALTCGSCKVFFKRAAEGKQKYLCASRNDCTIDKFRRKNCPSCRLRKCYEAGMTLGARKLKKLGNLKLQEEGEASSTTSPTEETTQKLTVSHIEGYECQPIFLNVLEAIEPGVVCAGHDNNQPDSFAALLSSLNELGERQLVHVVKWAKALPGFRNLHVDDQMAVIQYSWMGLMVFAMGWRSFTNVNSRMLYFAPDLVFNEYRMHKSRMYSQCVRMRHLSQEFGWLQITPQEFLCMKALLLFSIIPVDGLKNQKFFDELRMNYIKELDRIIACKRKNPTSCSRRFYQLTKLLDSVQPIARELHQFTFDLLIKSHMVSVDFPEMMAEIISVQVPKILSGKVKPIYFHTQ
Assay: Androgen Receptor ELISA assay (PathScan AR ELISA) in VCaP cells: AR degradation, Dmax and DC50
Assay type: cell-based
Conditions: for DC50: read-out: VCaP DC50; for Dmax: VCaP
Procedure, shortened: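 VCaP cells, 30,000/well, grown ≥3 days in phenol red-free RPMI with 5% charcoal-stripped FBS; compound added in 0.1% DMSO with 0.1 nM R1881, 7 half-log doses, 24 h. Lysate AR quantified by PathScan sandwich ELISA, HRP/TMB read at 450 nm, giving DC50 and Dmax.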

[1] = VCaP cells, Table 36, read-out: VCaP Dmax (%)
[2] = read-out: VCaP Dmax (%), VCaP cells, Table 36

| DC50 (VCaP cells, Table 36) | Dmax [1] | Dmax [2] | Structure (SMILES) | Dmax (read-out: VCaP Dmax (%)) |
| --- | --- | --- | --- | --- |
| > 0.501 µM | < 25% |  | CO[C@@H]1C[C@@H](C(=O)N(C)Cc2ccc(-c3scnc3C)cc2)N(C(=O)[C@@H](N(C)C(=O)COCCCCCN(C)c2ccc(C(=O)N[C@H]3C(C)(C)[C@H](Oc4ccc(C#N)c(C(F)(F)F)c4)C3(C)C)nc2)C(C)(C)C)C1 [Example 718, N-((1r,3r)-3-(4-cyano-3-(trifluoromethyl)phenoxy)-2,2,4,4-tetramethylcyclobutyl)-5-((5-(2-(((S)-1-((2S,4R)-4-methoxy-2-(methyl(4-(4-methylthiazol-5-yl)benzyl)carbamoyl)pyrrolidin-1-yl)-3,3-dimethyl-1-oxobutan-2-yl)(methyl)amino)-2-oxoethoxy)pentyl)(meth-yl)amino)picolinamide] |  |
| < 0.05 µM |  | > 71% | Cc1ncsc1-c1ccc([C@H](C)NC(=O)[C@@H]2C[C@@H](O)CN2C(=O)[C@@H](NC(=O)COCCc2cn(-c3ccc(C(=O)N[C@H]4C(C)(C)[C@H](Oc5ccc(C#N)c(C(F)(F)F)c5)C4(C)C)cc3)nn2)C(C)(C)C)cc1 [Example 719, (2S,4R)-1-((S)-2-(2-(2-(1-(4-(((1r,3r)-3-(4-cyano-3-(trifluoromethyl)phenoxy)-2,2,4,4-tetramethylcyclobutyl)carbamoyl)phenyl)-1H-1,2,3-triazol-4-yl)ethoxy)acetamido)-3,3-dimethylbutanoyl)-4-hydroxy-N-((S)-1-(4-(4-methylthiazol-5-yl)phenyl)ethyl)pyrrolidine-2-carboxamide] |  |
| > 0.501 µM |  | < 25% | Cc1ncsc1-c1ccc([C@H](C)NC(=O)[C@@H]2C[C@@H](F)CN2C(=O)[C@@H](NC(=O)COCCN2CCN(c3ccc(C(=O)N[C@H]4C(C)(C)[C@H](Oc5ccc(C#N)c(Cl)c5)C4(C)C)cn3)CC2)C(C)(C)C)cc1 [Example 720, N-((1r,3r)-3-(3-chloro-4-cyanophenoxy)-2,2,4,4-tetramethylcyclobutyl)-6-(4-(2-(2-(((S)-1-((2S,4R)-4-fluoro-2-(((S)-1-(4-(4-methylthiazol-5-yl)phenyl)ethyl)carbam-oyl)pyrrolidin-1-yl)-3,3-dimethyl-1-oxobutan-2-yl)amino)-2-oxoethoxy)ethyl)pipera-zin-1-yl)nicotinamide] |  |
| > 0.501 µM |  | < 25% | Cc1ncsc1-c1ccc([C@H](C)NC(=O)[C@@H]2C[C@H](F)CN2C(=O)[C@@H](NC(=O)COCCN2CCN(c3ccc(C(=O)N[C@H]4C(C)(C)[C@H](Oc5ccc(C#N)c(Cl)c5)C4(C)C)cn3)CC2)C(C)(C)C)cc1 [Example 721, N-((1r,3r)-3-(3-chloro-4-cyanophenoxy)-2,2,4,4-tetramethylcyclobutyl)-6-(4-(2-(2-(((S)-1-((2S,4S)-4-fluoro-2-(((S)-1-(4-(4-methylthiazol-5-yl)phenyl)ethyl)carbam-oyl)pyrrolidin-1-yl)-3,3-dimethyl-1-oxobutan-2-yl)amino)-2-oxoethoxy)ethyl)pipera-zin-1-yl)nicotinamide] |  |
| > 0.501 µM |  | < 25% | CC(C)C[C@H](OCCN1CCN(c2ccc(C(=O)N[C@H]3C(C)(C)[C@H](Oc4ccc(C#N)c(Cl)c4)C3(C)C)cn2)CC1)C(=O)N[C@@H](C)C(=O)N1C[C@H](O)C[C@H]1C(=O)NCc1ccc(Cl)cc1 [Example 722, N-((1r,3r)-3-(3-chloro-4-cyanophenoxy)-2,2,4,4-tetramethylcyclobutyl)-6-(4-(2-(((S)-1-(((S)-1-((2S,4R)-2-((4-chlorobenzyl)carbamoyl)-4-hydroxypyrrolidin-1-yl)-1-oxopropan-2-yl)amino)-4-methyl-1-oxopentan-2-yl)oxy)ethyl)piperazin-1-yl)nicotinamide] |  |
| < 0.05 µM | > 71% |  | Cc1ncsc1-c1ccc([C@H](C)NC(=O)C2C[C@@H](O)CN2C(=O)C(NC(=O)CN2CCN(CCCCc3ccc(C(=O)N[C@H]4C(C)(C)[C@H](Oc5ccc(C#N)c(C(F)(F)F)c5)C4(C)C)cc3)CC2)C(C)(C)C)cc1 (stereo partly drawn) [Example 723, (2S,4R)-1-((S)-2-(2-(4-(4-(4-(((1r,3r)-3-(4-cyano-3-(trifluoromethyl)phenoxy)-2,2,4,4-tetramethylcyclobutyl)carbamoyl)phenyl)butyl)piperazin-1-yl)actamido)-3,3-dimethylbutanoyl)-4-hydroxy-N-((S)-1-(4-(4-methylthiazol-5-yl)phenyl)ethyl)pyrrolidine-2-carboxamide] |  |
| > 0.501 µM | < 25% |  | Cc1ncsc1-c1ccc([C@H](C)NC(=O)[C@@H]2CCCN2C(=O)[C@@H](NC(=O)CN2CCN(CCCc3ccc(C(=O)N[C@H]4C(C)(C)[C@H](Oc5ccc(C#N)c(C(F)(F)F)c5)C4(C)C)cc3)CC2)C(C)(C)C)cc1 [Example 724, (S)-1-((S)-2-(2-(4-(3-(4-(((1r,3r)-3-(4-cyano-3-(trifluoromethyl)phenoxy)-2,2,4,4-tetramethylcyclobutyl)carbamoyl)phenyl)propyl)piperazin-1-yl)acetamido)-3,3-dimethylbutanoyl)-N-((S)-1-(4-(4-methylthiazol-5-yl)phenyl)ethyl)pyrrolidine-2-carboxamide] |  |
| > 0.501 µM | < 25% |  | Cc1ncsc1-c1ccc([C@H](C)NC(=O)[C@@H]2CC(F)(F)CN2C(=O)[C@@H](NC(=O)COCCN2CCN(c3ccc(C(=O)N[C@H]4C(C)(C)[C@H](Oc5ccc(C#N)c(Cl)c5)C4(C)C)cn3)CC2)C(C)(C)C)cc1 [Example 725, N-((1r,3r)-3-(3-chloro-4-cyanophenoxy)-2,2,4,4-tetramethylcyclobutyl)-6-(4-(2-(2-(((S)-1-((S)-4,4-difluoro-2-(((S)-1-(4-(4-methylthiazol-5-yl)phenyl)ethyl)carbam-oyl)pyrrolidin-1-yl)-3,3-dimethyl-1-oxobutan-2-yl)amino)-2-oxoethoxy)ethyl)pipera-zin-1-yl)nicotinamide] |  |
| > 0.501 µM | < 25% |  | CC(C)C[C@H](OCCN1CCN(c2ccc(C(=O)N[C@H]3C(C)(C)[C@H](Oc4ccc(C#N)c(Cl)c4)C3(C)C)cn2)CC1)C(=O)N[C@H](C(=O)N1C[C@H](O)C[C@H]1C(=O)NCc1ccc(Cl)cc1)C(C)C [Example 726, N-((1r,3r)-3-(3-chloro-4-cyanophenoxy)-2,2,4,4-tetramethylcyclobutyl)-6-(4-(2-(((S)-1-(((S)-1-((2S,4R)-2-((4-chlorobenzyl)carbamoyl)-4-hydroxypyrrolidin-1-yl)-3-methyl-1-oxobutan-2-yl)amino)-4-methyl-1-oxopentan-2-yl)oxy)ethyl)piperazin-1-yl)nicotinamide] |  |
| > 0.501 µM | < 25% |  | CC(C)C[C@H](OCCN1CCN(c2ccc(C(=O)N[C@H]3C(C)(C)[C@H](Oc4ccc(C#N)c(Cl)c4)C3(C)C)cn2)CC1)C(=O)N[C@H](C(=O)N1C[C@H](O)C[C@H]1C(=O)NCc1ccc(Cl)cc1)C(C)(C)C [Example 727, N-((1r,3r)-3-(3-chloro-4-cyanophenoxy)-2,2,4,4-tetramethylcyclobutyl)-6-(4-(2-(((S)-1-(((S)-1-((2S,4R)-2-((4-chlorobenzyl)carbamoyl)-4-hydroxypyrrolidin-1-yl)-3,3-dimethyl-1-oxobutan-2-yl)amino)-4-methyl-1-oxopentan-2-yl)oxy)ethyl)piperazin-1-yl)nicotinamide] |  |
| > 0.501 µM | < 25% |  | Cc1ncsc1-c1ccc([C@H](C)NC(=O)[C@@H]2C[C@@H](O)CN2C(=O)[C@@H](NC(=O)OC(C)(C)C)[C@@H](C)OCCCN(C)CCc2ccc(C(=O)N[C@H]3C(C)(C)[C@H](Oc4ccc(C#N)c(Cl)c4)C3(C)C)cc2)cc1 [Example 729, tert-butyl ((2S,3R)-3-(3-((4-(((1r,3r)-3-(3-chloro-4-cyanophenoxy)-2,2,4,4-tetramethylcyclobutyl)carbamoyl)phenethyl)(meth-yl)amino)propoxy)-1-((2S,4R)-4-hydroxy-2-(((S)-1-(4-(4-methylthiazol-5-yl)phenyl)ethyl)carbam-oyl)pyrrolidin-1-yl)-1-oxobutan-2-yl)carbamate] |  |

| Structure (SMILES) | DC50 (VCaP cells, Table 36) | Dmax [1] | Dmax [2] | Dmax (read-out: VCaP Dmax (%)) |
| --- | --- | --- | --- | --- |
| Cc1ncsc1-c1ccc([C@H](C)NC(=O)[C@@H]2C[C@@H](O)CN2C(=O)[C@@H](NC(=O)CN2CCN(CCCN3CCN(c4ccc(C(=O)N[C@H]5C(C)(C)[C@H](Oc6ccc(C#N)c(Cl)c6)C5(C)C)cn4)CC3)CC2)C(C)(C)C)cc1 [Example 717, N-((1r,3r)-3-(3-chloro-4-cyanophenoxy)-2,2,4,4-tetramethylcyclobutyl)-6-(4-(3-(4-(2-(((S)-1-((2S,4R)-4-hydroxy-2-(((S)-1-(4-(4-methylthiazol-5-yl)phenyl)ethyl)carbam-oyl)pyrrolidin-1-yl)-3,3-dimethyl-1-oxobutan-2-yl)amino)-2-oxoethyl)piperazin-1-yl)propyl)piperazin-1-yl)nicotinamide] | < 0.05 µM |  |  | 51 to 70% |
